The values that follow come from publication PMC4579270, “Identification and Characterization of an Irreversible Inhibitor of CDK2” (Chemistry & Biology, 2015).

What all share (assay): Dundee protein kinase screen
Format in all cases: biochemical

For one assay, the target named is JNK3 (Homo sapiens, UniProt P53779). The following applies: JNK3, 1µM; read-out: %Remaining activity at 1µM NU6300. How it is done:
(§1) Prior to determining its cellular activity, we carried out a screen to assess its selectivity against a panel of 131 protein kinases under conditions that would not distinguish between a reversible or irreversible mode of action. […] These 13 kinases and 29 additional kinases, selected for their known sensitivity to other inhibitors within the purine series, were then tested in a modified screening format in which the assay was repeated following a 4-hr pre-incubation (Table S3B). […] However, conformational flexibility around the active site may promote such an interaction with a residue from another part of the structure ([Martin et al., 2012]).
(§2) Table S3, Related to Figure 4. NCL-0006300 protein kinase selectivity. (A) NU6300 was tested at a single concentration of 1µM against 131 protein kinases present in a Dundee protein kinase screen (Bain et al., 2007). Values given are % activity remaining and are the average of duplicate measurements: 0-25% (red), 26-50% (yellow), 51-80% (black) and above 81% (green). The kinase domain sequences (as defined by UniProt) of […]
(§3) have a lysine residue at a position close to CDK2 Lys88 or Lys89. However, in the structure of tyrosine-protein kinase BTK (PDB ID: 3GEN) the residue equivalent to CDK2 Asp86 is Cys481 and therefore there is the potential for a covalent adduct to be formed through this side chain. […]

For a further assay, the target named is IRAK4 (Homo sapiens, UniProt Q9NWZ3). The following applies: IRAK4, 1µM; read-out: %Remaining activity at 1µM NU6300. As to the method: as §1, §2, §3
The target in a further assay is EF2K (Homo sapiens, UniProt O00418). The following applies: read-out: %Remaining activity at 1µM NU6300. As to the method: as §1, §2, §3
The target in the next assay is HIPK3 (Homo sapiens, UniProt Q9H422). The conditions noted are these: HIPK3, 1µM; read-out: %Remaining activity at 1µM NU6300. How it is done:
as §1, §2, §3

A further assay has as its target MARK2 (Homo sapiens, UniProt Q7KZI7). The following applies: MARK2, 1µM; read-out: %Remaining activity at 1µM NU6300. As to the method:
as §1, §2, §3

The next assay has as its target Lck (Homo sapiens, UniProt P06239). The following applies: read-out: %Remaining activity at 1µM NU6300. As to the method: as §1, §2, §3
The target in the next assay is MAPKAP-K2 (Homo sapiens, UniProt P49137). The following applies: MAPKAP-K2, 1µM; read-out: %Remaining activity at 1µM NU6300. As to the method: as §1, §2, §3
In a further assay the target is EPH-A4 (Homo sapiens, UniProt P54764). The following applies: EPH-A4, 1µM; read-out: %Remaining activity at 1µM NU6300. How it is done:
as §1, §2, §3

For another assay, the target named is LKB1 (Homo sapiens, UniProt Q15831). The following applies: LKB1, 1µM; read-out: %Remaining activity at 1µM NU6300. As to the method: as §1, §2, §3
A further assay has as its target EPH-B4 (Homo sapiens, UniProt P54760). The conditions noted are these: EPH-B4, 1µM; read-out: %Remaining activity at 1µM NU6300. How it is done:
as §1, §2, §3

The next assay has as its target CLK2 (Homo sapiens, UniProt P49760). The following applies: CLK2, 1µM; read-out: %Remaining activity at 1µM NU6300. As to the method: as §1, §2, §3
Another assay has as its target DYRK2 (Homo sapiens, UniProt Q92630). The conditions noted are these: DYRK2, 1µM; read-out: %Remaining activity at 1µM NU6300. How it is done: as §1, §2, §3
The subject of the next assay is AMPK. How it is done:
as §1, §2, §3

Another assay addresses IRR (Homo sapiens, UniProt P14616). The conditions noted are these: read-out: %Remaining activity at 1µM NU6300. As to the method: as §1, §2, §3
The target of a further assay is BRSK2 (Homo sapiens, UniProt Q8IWQ3). The conditions noted are these: BRSK2, 1µM; read-out: %Remaining activity at 1µM NU6300. As to the method: as §1, §2, §3
The target of another assay is T1, CHK1 (Homo sapiens, UniProt O14757).
T1 sequence (O14757 1-476): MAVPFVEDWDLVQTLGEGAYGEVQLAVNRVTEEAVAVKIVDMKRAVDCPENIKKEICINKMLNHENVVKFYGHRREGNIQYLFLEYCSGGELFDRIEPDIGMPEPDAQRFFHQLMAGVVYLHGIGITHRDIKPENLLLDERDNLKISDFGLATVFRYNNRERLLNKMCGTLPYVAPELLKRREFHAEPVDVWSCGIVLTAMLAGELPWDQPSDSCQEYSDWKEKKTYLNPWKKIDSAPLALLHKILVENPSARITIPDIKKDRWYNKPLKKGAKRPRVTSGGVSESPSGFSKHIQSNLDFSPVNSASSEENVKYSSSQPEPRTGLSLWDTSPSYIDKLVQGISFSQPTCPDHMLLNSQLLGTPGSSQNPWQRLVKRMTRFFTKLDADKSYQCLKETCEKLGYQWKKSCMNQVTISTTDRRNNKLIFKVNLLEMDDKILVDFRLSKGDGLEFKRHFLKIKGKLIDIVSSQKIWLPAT
The following applies: CHK1, 1µM; read-out: %Remaining activity at 1µM NU6300. As to the method: as §1, §2, §3

The next assay has as its target ERK2 (Homo sapiens, UniProt P28482). The following applies: ERK2, 1µM; read-out: %Remaining activity at 1µM NU6300. As to the method:
as §1, §2, §3

Another assay addresses EPH-A2 (Homo sapiens, UniProt P29317). The following applies: EPH-A2, 1µM; read-out: %Remaining activity at 1µM NU6300. How it is done: as §1, §2, §3
The next assay concerns the target EIF2AK3 (Homo sapiens, UniProt Q9NZJ5). The following applies: EIF2AK3, 1µM; read-out: %Remaining activity at 1µM NU6300. How it is done:
as §1, §2, §3

For another assay, the target named is JNK1 (Homo sapiens, UniProt P45983). The conditions noted are these: JNK1, 1µM; read-out: %Remaining activity at 1µM NU6300. How it is done:
as §1, §2, §3

The target of another assay is CHK2 (Homo sapiens, UniProt O96017). The conditions noted are these: CHK2, 1µM; read-out: %Remaining activity at 1µM NU6300. As to the method:
as §1, §2, §3

A further assay addresses BRK (Homo sapiens, UniProt Q13882). The conditions noted are these: read-out: %Remaining activity at 1µM NU6300. How it is done:
as §1, §2, §3

Structures are written as SMILES.

Chain of CHK2 (O96017 whole entry): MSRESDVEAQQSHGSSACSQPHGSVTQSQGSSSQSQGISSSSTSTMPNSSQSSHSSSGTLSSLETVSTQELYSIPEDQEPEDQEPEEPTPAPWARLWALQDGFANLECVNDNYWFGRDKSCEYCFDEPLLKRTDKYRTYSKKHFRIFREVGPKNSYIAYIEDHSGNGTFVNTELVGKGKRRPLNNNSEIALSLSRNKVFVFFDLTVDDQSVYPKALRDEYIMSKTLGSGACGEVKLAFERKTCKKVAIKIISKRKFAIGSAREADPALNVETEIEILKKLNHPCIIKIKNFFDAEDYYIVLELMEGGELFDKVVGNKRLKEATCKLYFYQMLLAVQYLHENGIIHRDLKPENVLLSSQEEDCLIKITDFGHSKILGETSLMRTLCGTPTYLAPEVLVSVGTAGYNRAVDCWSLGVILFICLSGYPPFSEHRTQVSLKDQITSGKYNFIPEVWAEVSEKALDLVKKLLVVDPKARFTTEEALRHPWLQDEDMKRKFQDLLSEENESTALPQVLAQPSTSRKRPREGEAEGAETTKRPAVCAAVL
Chain of MARK2 (Q7KZI7 whole entry): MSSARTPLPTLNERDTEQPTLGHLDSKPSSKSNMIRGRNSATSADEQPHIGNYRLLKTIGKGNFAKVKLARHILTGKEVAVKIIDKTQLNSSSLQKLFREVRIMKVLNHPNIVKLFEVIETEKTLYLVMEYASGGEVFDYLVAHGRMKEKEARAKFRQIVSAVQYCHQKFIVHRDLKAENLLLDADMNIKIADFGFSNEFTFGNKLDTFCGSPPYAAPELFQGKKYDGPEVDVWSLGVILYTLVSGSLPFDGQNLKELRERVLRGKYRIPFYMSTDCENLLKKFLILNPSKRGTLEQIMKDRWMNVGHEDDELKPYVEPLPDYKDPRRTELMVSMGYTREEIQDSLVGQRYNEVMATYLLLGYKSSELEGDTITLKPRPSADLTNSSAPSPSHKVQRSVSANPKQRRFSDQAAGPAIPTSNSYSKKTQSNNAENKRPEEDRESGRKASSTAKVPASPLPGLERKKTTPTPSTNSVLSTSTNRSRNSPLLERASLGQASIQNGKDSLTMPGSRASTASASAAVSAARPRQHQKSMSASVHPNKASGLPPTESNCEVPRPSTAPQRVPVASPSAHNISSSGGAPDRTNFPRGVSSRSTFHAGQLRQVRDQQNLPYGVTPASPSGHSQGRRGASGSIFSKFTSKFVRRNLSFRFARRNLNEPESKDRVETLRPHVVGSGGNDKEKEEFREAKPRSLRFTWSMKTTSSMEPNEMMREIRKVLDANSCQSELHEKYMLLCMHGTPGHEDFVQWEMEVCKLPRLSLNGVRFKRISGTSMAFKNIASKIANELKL
Chain of IRAK4 (Q9NWZ3 whole entry): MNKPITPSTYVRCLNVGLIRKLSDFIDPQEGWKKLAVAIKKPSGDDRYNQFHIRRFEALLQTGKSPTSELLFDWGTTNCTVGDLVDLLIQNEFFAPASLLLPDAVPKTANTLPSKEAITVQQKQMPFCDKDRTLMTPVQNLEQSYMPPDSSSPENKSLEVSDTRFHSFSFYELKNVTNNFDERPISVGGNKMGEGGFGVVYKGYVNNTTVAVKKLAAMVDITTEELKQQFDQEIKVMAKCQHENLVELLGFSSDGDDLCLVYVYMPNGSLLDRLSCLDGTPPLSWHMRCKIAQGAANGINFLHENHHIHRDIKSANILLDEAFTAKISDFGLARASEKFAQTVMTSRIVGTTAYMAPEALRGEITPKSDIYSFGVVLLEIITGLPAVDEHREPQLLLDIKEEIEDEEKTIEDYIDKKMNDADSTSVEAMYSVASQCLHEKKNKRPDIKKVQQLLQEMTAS
Chain of IRR (P14616 27-1297): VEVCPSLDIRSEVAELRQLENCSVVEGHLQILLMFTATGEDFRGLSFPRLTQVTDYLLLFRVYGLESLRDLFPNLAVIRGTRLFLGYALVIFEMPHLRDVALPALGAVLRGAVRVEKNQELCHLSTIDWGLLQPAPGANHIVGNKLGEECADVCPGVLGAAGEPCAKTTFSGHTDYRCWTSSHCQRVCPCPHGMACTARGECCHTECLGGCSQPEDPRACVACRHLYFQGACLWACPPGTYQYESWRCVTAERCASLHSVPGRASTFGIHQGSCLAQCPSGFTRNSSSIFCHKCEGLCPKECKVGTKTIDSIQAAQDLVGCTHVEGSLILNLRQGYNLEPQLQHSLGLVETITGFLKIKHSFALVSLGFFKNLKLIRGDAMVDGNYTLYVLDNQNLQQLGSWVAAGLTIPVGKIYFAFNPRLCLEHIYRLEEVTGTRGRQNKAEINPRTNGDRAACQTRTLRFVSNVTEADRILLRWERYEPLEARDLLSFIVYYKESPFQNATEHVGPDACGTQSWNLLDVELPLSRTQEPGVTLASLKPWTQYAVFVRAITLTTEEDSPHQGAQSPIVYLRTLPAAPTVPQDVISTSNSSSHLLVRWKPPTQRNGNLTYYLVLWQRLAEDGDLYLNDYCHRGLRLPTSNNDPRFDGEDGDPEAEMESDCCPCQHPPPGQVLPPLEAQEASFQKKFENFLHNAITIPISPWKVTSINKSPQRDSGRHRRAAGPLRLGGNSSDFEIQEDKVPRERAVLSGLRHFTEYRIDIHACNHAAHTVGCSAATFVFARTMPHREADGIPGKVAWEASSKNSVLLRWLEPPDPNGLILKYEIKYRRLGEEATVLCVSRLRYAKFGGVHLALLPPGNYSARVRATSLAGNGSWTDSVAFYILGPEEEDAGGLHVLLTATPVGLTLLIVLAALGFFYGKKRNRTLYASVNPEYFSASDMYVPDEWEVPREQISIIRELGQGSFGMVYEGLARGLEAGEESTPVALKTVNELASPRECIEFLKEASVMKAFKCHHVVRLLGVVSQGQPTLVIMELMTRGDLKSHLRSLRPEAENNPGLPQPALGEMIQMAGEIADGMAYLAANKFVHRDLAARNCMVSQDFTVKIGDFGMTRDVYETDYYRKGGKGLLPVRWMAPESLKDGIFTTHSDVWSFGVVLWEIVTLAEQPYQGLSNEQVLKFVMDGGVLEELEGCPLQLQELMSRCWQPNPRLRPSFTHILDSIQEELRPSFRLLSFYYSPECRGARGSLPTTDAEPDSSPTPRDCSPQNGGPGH
Chain of BRSK2 (Q8IWQ3 whole entry): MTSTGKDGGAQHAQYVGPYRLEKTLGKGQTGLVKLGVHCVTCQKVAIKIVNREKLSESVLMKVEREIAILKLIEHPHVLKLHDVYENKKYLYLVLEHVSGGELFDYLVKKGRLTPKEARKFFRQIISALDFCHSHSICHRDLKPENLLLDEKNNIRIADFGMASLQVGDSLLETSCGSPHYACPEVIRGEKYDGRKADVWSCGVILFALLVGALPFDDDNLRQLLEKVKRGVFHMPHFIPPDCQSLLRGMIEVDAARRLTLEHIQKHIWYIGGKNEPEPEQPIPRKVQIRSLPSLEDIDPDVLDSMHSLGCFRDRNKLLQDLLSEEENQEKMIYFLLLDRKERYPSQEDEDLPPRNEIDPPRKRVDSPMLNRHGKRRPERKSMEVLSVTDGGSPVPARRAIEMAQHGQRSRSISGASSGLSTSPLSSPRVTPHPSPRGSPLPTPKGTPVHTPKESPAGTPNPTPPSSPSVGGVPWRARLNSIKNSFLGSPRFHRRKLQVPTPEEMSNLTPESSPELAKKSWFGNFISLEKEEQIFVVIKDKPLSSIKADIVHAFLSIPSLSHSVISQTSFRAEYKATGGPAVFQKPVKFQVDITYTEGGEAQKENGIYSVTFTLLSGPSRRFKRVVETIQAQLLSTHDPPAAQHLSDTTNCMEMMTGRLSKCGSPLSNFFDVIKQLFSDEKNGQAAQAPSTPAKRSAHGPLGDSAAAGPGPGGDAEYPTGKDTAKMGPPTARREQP
Chain of EIF2AK3 (Q9NZJ5 30-1116): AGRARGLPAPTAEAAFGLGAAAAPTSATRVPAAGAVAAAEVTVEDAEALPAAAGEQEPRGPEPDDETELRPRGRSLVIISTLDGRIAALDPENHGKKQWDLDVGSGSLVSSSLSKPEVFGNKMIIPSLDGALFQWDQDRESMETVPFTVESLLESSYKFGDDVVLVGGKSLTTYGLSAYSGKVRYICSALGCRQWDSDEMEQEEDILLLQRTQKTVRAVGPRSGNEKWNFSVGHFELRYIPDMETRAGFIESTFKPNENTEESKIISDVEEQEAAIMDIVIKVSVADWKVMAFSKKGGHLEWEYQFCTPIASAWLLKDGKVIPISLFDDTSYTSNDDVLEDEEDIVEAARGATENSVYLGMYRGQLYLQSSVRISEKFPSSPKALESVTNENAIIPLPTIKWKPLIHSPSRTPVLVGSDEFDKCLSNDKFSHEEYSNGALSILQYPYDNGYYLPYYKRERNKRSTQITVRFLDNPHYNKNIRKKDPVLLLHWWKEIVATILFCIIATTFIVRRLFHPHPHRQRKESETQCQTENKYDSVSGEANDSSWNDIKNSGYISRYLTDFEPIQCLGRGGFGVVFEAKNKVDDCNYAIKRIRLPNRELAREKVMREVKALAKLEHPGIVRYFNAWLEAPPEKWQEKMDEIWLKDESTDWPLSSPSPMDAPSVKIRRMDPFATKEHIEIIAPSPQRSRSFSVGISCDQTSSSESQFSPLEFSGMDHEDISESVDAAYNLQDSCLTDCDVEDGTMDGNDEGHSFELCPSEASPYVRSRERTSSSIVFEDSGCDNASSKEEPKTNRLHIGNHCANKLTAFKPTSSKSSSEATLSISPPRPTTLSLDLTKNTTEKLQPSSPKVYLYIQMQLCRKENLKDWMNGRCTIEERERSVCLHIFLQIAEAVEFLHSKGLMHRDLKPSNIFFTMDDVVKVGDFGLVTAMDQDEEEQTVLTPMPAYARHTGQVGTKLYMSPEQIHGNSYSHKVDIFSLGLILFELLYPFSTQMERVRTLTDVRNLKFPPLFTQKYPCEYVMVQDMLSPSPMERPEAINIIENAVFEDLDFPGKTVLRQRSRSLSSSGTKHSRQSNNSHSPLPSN

Regarding `C=CS(=O)(=O)c1ccc(Nc2nc(OCC3CCCCC3)c3nc[nH]c3n2)cc1` [NU6300, 6-(cyclohexylmethoxy)-N-(4-(vinylsulfonyl)phenyl)-9H-purin-2-amine], the remaining activity (usually the share of the control activity or signal that is left under treatment) at 1 µM at JNK3 worked out at 37%; on IRAK4 it was 78%; on EF2K, 69%; at HIPK3 it was 96%; at MARK2 it was 69%; on Lck it was 42%. The remaining activity at 1 µM on MAPKAP-K2 was 93%; at EPH-A4, 69%; on LKB1 it was 59%; on EPH-B4, 90%; at CLK2 it was 27%; at DYRK2, 78%. Moreover, the remaining activity at 1 µM at IRR turned out to be 32%; at BRSK2 it was 60%; at CHK1 it was 38%; at ERK2, 73%; at EPH-A2, 91%; at EIF2AK3, 83%. Further, the results for the remaining activity at 1 µM on JNK1, at CHK2 and on BRK were 60%, 39% and 59%, respectively. For the same molecule, in the assay with AMPK, the “%Remaining activity at 1µM NU6300” value amounted to 47%.
